Measured values: ChEMBL document CHEMBL5375952, “Discovery of Novel 8-Hydroxyquinoline Derivatives with Potent In Vitro and In Vivo Antifungal Activity” (J Med Chem, 2023)
Active and inactive are the calls of the source. No cut-off for these calls is given here.

Tests used:
[1] = Cmax in Sprague-Dawley rat at 5 mg/kg, po by LC-MS/MS analysis; assay type: ADME, organism-based; design: dose 5 mg/kg, route po; conditions: in vivo
Candida albicans [2] = assay: Synergistic antifungal activity against FLC-resistant Candida albicans 8 assessed as MIC of FLC incubated for 48 hrs by broth microdilution method; assay type: functional
Candida albicans [3] = assay: Synergistic antifungal activity against FLC-resistant Candida albicans 100 assessed as fractional inhibitory concentration index incubated for 48 hrs in presence of FLC by broth microdilution method; assay type: functional
[4] = Toxicity in C57BL/6 mouse infected with Candida albicans SC5314 assessed as animal survival at 2 mg/kg, ip measured after 20 days in presence of FLC relative to control; assay type: organism-based; conditions: in vivo, 480 h, time 20 day
Candida albicans [5] = assay: Antifungal activity against Candida albicans SC5314 assessed as fungal growth inhibition incubated for 48 hrs in presence of Cu2+ by broth microdilution method (reference value: 0.0625 ug/ml); assay type: functional
Candida albicans [6] = assay: Synergistic antifungal activity against FLC-resistant Candida albicans 710419 assessed as fungal growth inhibition incubated for 48 hrs in presence of FLC by broth microdilution method; assay type: functional
Candida albicans [7] = assay: Antifungal activity against Candida albicans SC5314 infected in C57BL/6 mouse assessed as mean fungal burden at 2 mg/kg, ip measured after 46 hrs in presence of FLC by plate count method (reference value: 6.902 log10CFU/ml); assay type: functional
Candida albicans [8] = assay: Synergistic antifungal activity against FLC-resistant Candida albicans 64548 assessed as fractional inhibitory concentration index incubated for 48 hrs in presence of FLC by broth microdilution method; assay type: functional
Candida albicans [9] = assay: Synergistic antifungal activity against FLC-resistant Candida albicans 12 assessed as fractional inhibitory concentration index incubated for 48 hrs in presence of FLC by broth microdilution method; assay type: functional
[10] = AUC (0 to infinity) in Sprague-Dawley rat at 5 mg/kg, po by LC-MS/MS analysis; assay type: ADME, organism-based; design: dose 5 mg/kg, route po; conditions: in vivo
Candida albicans [11] = assay: Synergistic antifungal activity against FLC-resistant Candida albicans 395 assessed as fungal growth inhibition incubated for 48 hrs in presence of FLC by broth microdilution method; assay type: functional
Candida albicans [12] = assay: Synergistic antifungal activity against FLC-resistant Candida albicans 512681 assessed as fractional inhibitory concentration index incubated for 48 hrs in presence of FLC by broth microdilution method; assay type: functional
Candida albicans [13] = assay: Synergistic antifungal activity against FLC-resistant Candida albicans 395 assessed as fractional inhibitory concentration index incubated for 48 hrs in presence of FLC by broth microdilution method; assay type: functional
Candida albicans [14] = assay: Synergistic antifungal activity against FLC-resistant Candida albicans 305 assessed as fungal growth inhibition incubated for 48 hrs in presence of FLC by broth microdilution method; assay type: functional
Candida albicans [15] = assay: Synergistic antifungal activity against FLC-resistant Candida albicans 538 assessed as fungal growth inhibition incubated for 48 hrs in presence of FLC by broth microdilution method; assay type: functional
Candida albicans [16] = assay: Synergistic antifungal activity against FLC-resistant Candida albicans 605141 assessed as fungal growth inhibition incubated for 48 hrs in presence of FLC by broth microdilution method; assay type: functional
Candida albicans [17] = assay: Synergistic antifungal activity against FLC-resistant Candida albicans 11 assessed as MIC of FLC incubated for 48 hrs by broth microdilution method; assay type: functional
[18] = Clearance in Sprague-Dawley rat at 2 mg/kg, iv by LC-MS/MS analysis; assay type: ADME, organism-based; conditions: in vivo
Candida albicans [19] = assay: Synergistic antifungal activity against FLC-resistant Candida albicans 17 assessed as fractional inhibitory concentration index incubated for 48 hrs in presence of FLC by broth microdilution method; assay type: functional
Candida albicans [20] = assay: Synergistic antifungal activity against FLC-resistant Candida albicans 819 assessed as fractional inhibitory concentration index incubated for 48 hrs in presence of FLC by broth microdilution method; assay type: functional
Candida albicans [21] = assay: Synergistic antifungal activity against FLC-resistant Candida albicans 10 assessed as fractional inhibitory concentration index incubated for 48 hrs in presence of FLC by broth microdilution method; assay type: functional
Candida albicans [22] = assay: Synergistic antifungal activity against FLC-resistant Candida albicans 10 assessed as MIC of FLC incubated for 48 hrs by broth microdilution method; assay type: functional
Candida albicans [23] = assay: Synergistic antifungal activity against FLC-resistant Candida albicans 819 assessed as MIC of FLC incubated for 48 hrs by broth microdilution method; assay type: functional
Candida albicans [24] = assay: Synergistic antifungal activity against FLC-resistant Candida albicans 819 assessed as fungal growth inhibition incubated for 48 hrs in presence of FLC by broth microdilution method; assay type: functional
Candida albicans [25] = assay: Synergistic antifungal activity against FLC-resistant Candida albicans 512644 assessed as fractional inhibitory concentration index incubated for 48 hrs in presence of FLC by broth microdilution method; assay type: functional
Candida albicans [26] = assay: Synergistic antifungal activity against FLC-resistant Candida albicans 512644 assessed as fungal growth inhibition incubated for 48 hrs in presence of FLC by broth microdilution method; assay type: functional
Candida albicans [27] = assay: Synergistic antifungal activity against FLC-resistant Candida albicans 5740 assessed as MIC of FLC incubated for 48 hrs by broth microdilution method; assay type: functional
Candida albicans [28] = assay: Synergistic antifungal activity against FLC-resistant Candida albicans 241 assessed as MIC of FLC incubated for 48 hrs by broth microdilution method; assay type: functional
Candida albicans [29] = assay: Synergistic antifungal activity against FLC-resistant Candida albicans 710506 assessed as fractional inhibitory concentration index incubated for 48 hrs in presence of FLC by broth microdilution method; assay type: functional
Candida albicans [30] = assay: Synergistic antifungal activity against FLC-resistant Candida albicans 14 assessed as fractional inhibitory concentration index incubated for 48 hrs in presence of FLC by broth microdilution method; assay type: functional
Candida albicans [31] = assay: Synergistic antifungal activity against FLC-resistant Candida albicans 100 assessed as fungal growth inhibition incubated for 48 hrs in presence of FLC by broth microdilution method; assay type: functional
Candida albicans [32] = assay: Synergistic antifungal activity against FLC-resistant Candida albicans 304103 assessed as fungal growth inhibition incubated for 48 hrs in presence of FLC by broth microdilution method; assay type: functional
Candida albicans [33] = assay: Synergistic antifungal activity against FLC-resistant Candida albicans 14 assessed as fungal growth inhibition incubated for 48 hrs in presence of FLC by broth microdilution method; assay type: functional
[34] = Toxicity in C57BL/6 mouse infected with Candida albicans SC5314 assessed as animal survival at 2 mg/kg, ip measured after 20 days relative to control; assay type: organism-based; conditions: in vivo, 480 h, time 20 day
Candida albicans [35] = assay: Synergistic antifungal activity against FLC-resistant Candida albicans 605141 assessed as MIC of FLC incubated for 48 hrs by broth microdilution method; assay type: functional
Candida albicans [36] = assay: Antifungal activity against Candida albicans 0304103 assessed as fungal growth inhibition at 4 to 8 ug/ml incubated for 48 hrs by time-kill assay; assay type: functional, organism-based; conditions: dose 4-8 µg/ml
Candida albicans [37] = assay: Synergistic antifungal activity against FLC-resistant Candida albicans 710452 assessed as fungal growth inhibition incubated for 48 hrs in presence of FLC by broth microdilution method; assay type: functional
Candida albicans [38] = assay: Synergistic antifungal activity against FLC-resistant Candida albicans 14 assessed as MIC of FLC incubated for 48 hrs by broth microdilution method; assay type: functional
[39] = Toxicity in C57BL/6 mouse infected with Candida albicans SC5314 assessed as animal death at 2 mg/kg, ip measured after 7 days; assay type: organism-based; conditions: in vivo, 168 h, time 7 day
[40] = Toxicity in C57BL/6 mouse infected with Candida albicans SC5314 assessed as animal death at 0.25 mg/kg, ip measured after 7 days; assay type: organism-based; conditions: in vivo, 168 h, time 7 day

CCN(CC)c1ccc(C(NC(=O)C(C)C)c2ccc3cccnc3c2O)cc1 (stereo not given)
Cmax [1]: 239 ng/mL
MIC (Candida albicans [2]): 0.031 µg/mL
fractional inhibitory concentration index (FICI) (Candida albicans [3]): 0.14
Survival [4]: 20%
MIC (Candida albicans [5]): 128 µg/mL
MIC (Candida albicans [6]): 0.031 µg/mL
Activity (Candida albicans [7]): 5.244 log10CFU/ml
fractional inhibitory concentration index (FICI) (Candida albicans [8]): 0.063
fractional inhibitory concentration index (FICI) (Candida albicans [9]): 0.062
AUC(0-inf) [10]: 158 ng·h/mL
MIC (Candida albicans [11]): 0.016 µg/mL
fractional inhibitory concentration index (FICI) (Candida albicans [12]): 0.127
fractional inhibitory concentration index (FICI) (Candida albicans [13]): 0.133
MIC (Candida albicans [14]): 0.016 µg/mL
MIC (Candida albicans [15]): 0.008 µg/mL
MIC (Candida albicans [16]): 0.031 µg/mL
MIC (Candida albicans [17]): 0.25 µg/mL
clearance [18]: 30.4 mL/min/kg
fractional inhibitory concentration index (FICI) (Candida albicans [19]): 0.035
fractional inhibitory concentration index (FICI) (Candida albicans [20]): 0.133
fractional inhibitory concentration index (FICI) (Candida albicans [21]): 0.07
MIC (Candida albicans [22]): 0.25 µg/mL
MIC (Candida albicans [23]): 0.25 µg/mL
MIC (Candida albicans [24]): 0.016 µg/mL
fractional inhibitory concentration index (FICI) (Candida albicans [25]): 0.047
MIC (Candida albicans [26]): 0.008 µg/mL
MIC (Candida albicans [27]): 2 µg/mL
MIC (Candida albicans [28]): 1 µg/mL
fractional inhibitory concentration index (FICI) (Candida albicans [29]): 0.035
fractional inhibitory concentration index (FICI) (Candida albicans [30]): 0.133
MIC (Candida albicans [31]): 0.016 µg/mL
MIC (Candida albicans [32]): 0.008 µg/mL
MIC (Candida albicans [33]): 0.016 µg/mL
Survival [34]: 20%
MIC (Candida albicans [35]): 0.125 µg/mL
growth inhibition (GI) (Candida albicans [36]): inactive
MIC (Candida albicans [37]): 0.016 µg/mL
MIC (Candida albicans [38]): 0.25 µg/mL

Oc1c(I)cc(Cl)c2cccnc12 [CLIOQUINOL]
Activity [39]: Non-Toxic

OC(Cn1cncn1)(Cn1cncn1)c1ccc(F)cc1F [FLUCONAZOLE]
Activity [40]: Toxic
